Data: PubChem BioAssay (NCI)
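Five compound concentrations were applied to cells in 96-well plates for 48 hours; endpoints were derived by simple linear interpolation of the resulting dose-response curve. TGI marks complete inhibition of growth.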

How the values were obtained:
Test in all cases: growth of human tumour cells (NCI), 48 h
[1] = tested on: EKVX NSCLC
[2] = tested on: UACC-62 melanoma
[3] = tested on: SF-539 CNS
[4] = tested on: SN12C renal
[5] = tested on: HCC-2998 colon
[6] = tested on: TK-10 renal
[7] = tested on: MDA-MB-435
[8] = tested on: NCI-H522 lung
[9] = tested on: OVCAR-4 ovarian
[10] = tested on: HL-60(TB) leukemia
[11] = tested on: SF-295 CNS
[12] = tested on: UO-31 renal
[13] = tested on: LOX IMVI melanoma
[14] = tested on: OVCAR-5 ovarian
[15] = tested on: MCF7 breast
[16] = tested on: DU-145 prostate
[17] = tested on: MDA-MB-231 breast
[18] = tested on: MALME-3M melanoma
[19] = tested on: SW-620 colon
[20] = tested on: U251 CNS
[21] = tested on: MDA-N
[22] = tested on: CAKI-1 renal
[23] = tested on: SK-MEL-28 melanoma
[24] = tested on: HOP-62 NSCLC
[25] = tested on: MOLT-4 leukemia
[26] = tested on: NCI/ADR-RES ovarian
[27] = tested on: NCI-H460 lung
[28] = tested on: HS 578T breast
[29] = tested on: OVCAR-8 ovarian
[30] = tested on: NCI-H23 lung
[31] = tested on: RPMI-8226 leukemia
[32] = tested on: SR leukemia
[33] = tested on: SK-MEL-2 melanoma
[34] = tested on: IGROV1 ovarian
[35] = tested on: OVCAR-3 ovarian
[36] = tested on: K-562 leukemia
[37] = tested on: CCRF-CEM leukemia
[38] = tested on: A549 NSCLC
[39] = tested on: 786-0 renal
[40] = tested on: SF-268 CNS
[41] = tested on: UACC-257 melanoma
[42] = tested on: HT29 colon
[43] = tested on: ACHN renal
[44] = tested on: SNB-19 CNS
[45] = tested on: SK-OV-3 ovarian
[46] = tested on: HCT-116 colon
[47] = tested on: BT-549 breast
[48] = tested on: HOP-92 NSCLC
[49] = tested on: KM12 colon
[50] = tested on: T-47D breast
[51] = tested on: SK-MEL-5 melanoma
[52] = tested on: HCT-15 colon
[53] = tested on: PC-3 prostate
[54] = tested on: A498 renal
[55] = tested on: COLO 205 colon
[56] = tested on: SNB-75 CNS
[57] = tested on: M14 melanoma
[58] = tested on: RXF 393 renal
[59] = tested on: NCI-H226 lung

## O=C(CNC(c1ccccc1)(c1ccccc1)c1ccccc1)NC1CCCCC1NC(=O)CNC(c1ccccc1)(c1ccccc1)c1ccccc1 (centres undefined)
[1]
  TGI: 47.6 µM
[2]
  TGI: > 100 µM
[3]
  TGI: > 100 µM
[4]
  TGI: > 100 µM
[5]
  TGI: > 100 µM
[6]
  TGI: > 100 µM
[7]
  TGI: > 100 µM
[8]
  TGI: > 100 µM
[9]
  TGI: > 100 µM
[10]
  TGI: > 100 µM
[11]
  TGI: > 100 µM
[12]
  TGI: > 100 µM
[13]
  TGI: > 100 µM
[14]
  TGI: > 100 µM
[15]
  TGI: > 100 µM
[16]
  TGI: > 100 µM
[17]
  TGI: > 100 µM
[18]
  TGI: > 100 µM
[19]
  TGI: > 100 µM
[20]
  TGI: > 100 µM
[21]
  TGI: > 100 µM
[22]
  TGI: > 100 µM
[23]
  TGI: > 100 µM
[24]
  TGI: 91.6 µM
[25]
  TGI: > 100 µM
[26]
  TGI: > 100 µM
[27]
  TGI: > 100 µM
[28]
  TGI: > 100 µM
[29]
  TGI: > 100 µM
[30]
  TGI: > 100 µM
[31]
  TGI: > 100 µM
[32]
  TGI: > 100 µM
[33]
  TGI: > 100 µM
[34]
  TGI: > 100 µM
[35]
  TGI: > 100 µM
[36]
  TGI: > 100 µM
[37]
  TGI: > 100 µM
[38]
  TGI: > 100 µM
[39]
  TGI: > 100 µM
[40]
  TGI: > 100 µM
[41]
  TGI: > 100 µM
[42]
  TGI: > 100 µM
[43]
  TGI: > 100 µM
[44]
  TGI: > 100 µM
[45]
  TGI: > 100 µM
[46]
  TGI: > 100 µM
[47]
  TGI: > 100 µM
[48]
  TGI: 78.7 µM
[49]
  TGI: > 100 µM
[50]
  TGI: > 100 µM
[51]
  TGI: > 100 µM
[52]
  TGI: > 100 µM
[53]
  TGI: > 100 µM
[54]
  TGI: > 100 µM
[55]
  TGI: > 100 µM

## Cc1ccc(S(=O)c2sccc2C=O)cc1 (centres undefined)
[1]
  TGI: > 100 µM
[2]
  TGI: 55.3 µM
[3]
  TGI: 41.7 µM
[4]
  TGI: 63.5 µM
[5]
  TGI: > 100 µM
[6]
  TGI: > 100 µM
[7]
  TGI: 62.6 µM
[8]
  TGI: > 100 µM
[9]
  TGI: 75 µM
[10]
  TGI: 48.2 µM
[11]
  TGI: 71.3 µM
[12]
  TGI: > 100 µM
[56]
  TGI: 94.9 µM
[13]
  TGI: 32.4 µM
[14]
  TGI: > 100 µM
[15]
  TGI: 43.8 µM
[16]
  TGI: > 100 µM
[17]
  TGI: > 100 µM
[18]
  TGI: > 100 µM
[19]
  TGI: 55.9 µM
[20]
  TGI: 34.6 µM
[21]
  TGI: > 100 µM
[22]
  TGI: > 100 µM
[57]
  TGI: 58.1 µM
[23]
  TGI: 92.4 µM
[24]
  TGI: 68.1 µM
[25]
  TGI: 59.1 µM
[26]
  TGI: 67.2 µM
[27]
  TGI: 50.4 µM
[28]
  TGI: 65.9 µM
[29]
  TGI: 56.5 µM
[30]
  TGI: > 100 µM
[31]
  TGI: 76.2 µM
[32]
  TGI: 84.2 µM
[33]
  TGI: > 100 µM
[34]
  TGI: 74.3 µM
[36]
  TGI: > 100 µM
[37]
  TGI: 56 µM
[38]
  TGI: > 100 µM
[39]
  TGI: > 100 µM
[40]
  TGI: 82.4 µM
[41]
  TGI: > 100 µM
[42]
  TGI: 45 µM
[43]
  TGI: > 100 µM
[44]
  TGI: > 100 µM
[45]
  TGI: > 100 µM
[46]
  TGI: 31 µM
[47]
  TGI: 60.3 µM
[49]
  TGI: 70.3 µM
[50]
  TGI: > 100 µM
[51]
  TGI: > 100 µM
[52]
  TGI: 85.8 µM
[58]
  TGI: > 100 µM
[53]
  TGI: > 100 µM
[54]
  TGI: > 100 µM
[55]
  TGI: > 100 µM

## NCOC(=O)Cc1ccc(Br)cc1
[1]
  TGI: > 100 µM
[2]
  TGI: > 100 µM
[3]
  TGI: > 100 µM
[4]
  TGI: > 100 µM
[6]
  TGI: > 100 µM
[8]
  TGI: > 100 µM
[10]
  TGI: > 100 µM
[11]
  TGI: > 100 µM
[12]
  TGI: > 100 µM
[56]
  TGI: > 100 µM
[13]
  TGI: > 100 µM
[14]
  TGI: > 100 µM
[15]
  TGI: > 100 µM
[59]
  TGI: > 100 µM
[16]
  TGI: > 100 µM
[17]
  TGI: > 100 µM
[18]
  TGI: > 100 µM
[19]
  TGI: > 100 µM
[20]
  TGI: > 100 µM
[21]
  TGI: > 100 µM
[57]
  TGI: > 100 µM
[23]
  TGI: > 100 µM
[24]
  TGI: > 100 µM
[25]
  TGI: > 100 µM
[26]
  TGI: > 100 µM
[27]
  TGI: > 100 µM
[28]
  TGI: > 100 µM
[29]
  TGI: > 100 µM
[30]
  TGI: > 100 µM
[31]
  TGI: > 100 µM
[32]
  TGI: > 100 µM
[33]
  TGI: > 100 µM
[34]
  TGI: > 100 µM
[35]
  TGI: > 100 µM
[36]
  TGI: > 100 µM
[37]
  TGI: > 100 µM
[38]
  TGI: > 100 µM
[39]
  TGI: > 100 µM
[40]
  TGI: > 100 µM
[41]
  TGI: > 100 µM
[42]
  TGI: > 100 µM
[43]
  TGI: > 100 µM
[44]
  TGI: > 100 µM
[45]
  TGI: > 100 µM
[46]
  TGI: > 100 µM
[47]
  TGI: > 100 µM
[48]
  TGI: > 100 µM
[50]
  TGI: > 100 µM
[51]
  TGI: > 100 µM
[52]
  TGI: > 100 µM
[58]
  TGI: > 100 µM
[53]
  TGI: > 100 µM
[54]
  TGI: > 100 µM
[55]
  TGI: > 100 µM

## CSc1ccc(/C=C2\N=C(c3ccccc3)N(c3nc4cc(C)c(C)cc4s3)C2=O)cc1
[1]
  TGI: 85.9 µM
[2]
  TGI: > 100 µM
[3]
  TGI: 40.9 µM
[4]
  TGI: 72.4 µM
[5]
  TGI: 82.4 µM
[6]
  TGI: > 100 µM
[7]
  TGI: 37.7 µM
[9]
  TGI: > 100 µM
[10]
  TGI: 86.3 µM
[11]
  TGI: > 100 µM
[12]
  TGI: > 100 µM
[56]
  TGI: 55.2 µM
[13]
  TGI: 44.7 µM
[14]
  TGI: 67.9 µM
[15]
  TGI: 37.2 µM
[16]
  TGI: > 100 µM
[17]
  TGI: > 100 µM
[19]
  TGI: > 100 µM
[20]
  TGI: 36.5 µM
[21]
  TGI: 33.3 µM
[22]
  TGI: > 100 µM
[57]
  TGI: 75.8 µM
[23]
  TGI: > 100 µM
[24]
  TGI: 59.4 µM
[25]
  TGI: > 100 µM
[26]
  TGI: > 100 µM
[27]
  TGI: > 100 µM
[28]
  TGI: 92.1 µM
[29]
  TGI: 43.9 µM
[31]
  TGI: > 100 µM
[32]
  TGI: 54.2 µM
[33]
  TGI: 34.1 µM
[34]
  TGI: 81.4 µM
[35]
  TGI: 77.4 µM
[36]
  TGI: > 100 µM
[37]
  TGI: 34.6 µM
[38]
  TGI: 89.7 µM
[39]
  TGI: 61.6 µM
[40]
  TGI: > 100 µM
[41]
  TGI: > 100 µM
[42]
  TGI: 47.9 µM
[43]
  TGI: 58.6 µM
[44]
  TGI: 83.9 µM
[45]
  TGI: > 100 µM
[46]
  TGI: 44.5 µM
[47]
  TGI: 98.1 µM
[48]
  TGI: 73.3 µM
[49]
  TGI: > 100 µM
[50]
  TGI: > 100 µM
[51]
  TGI: 84.5 µM
[52]
  TGI: > 100 µM
[58]
  TGI: 62.3 µM
[53]
  TGI: 49.3 µM
[55]
  TGI: > 100 µM
